Reference: patent publication US20260092179A1, “GENETICALLY MODIFIED HOST CELLS PRODUCING VIOLACEIN, ANALOGUES, AND DERIVATIVES THEREOF” (OCTARINE BIO APS, priority 2022, published 2026)

Experiments:
Format in all cases: physicochemical
[1] = Temperature stability of dyed fabrics (colour fastness, ΔE); conditions: oven 80° c. for 4 h; for ΔE: before and after the stability test
Procedure: (§1) In order to assess the stability and colour fastness of violacein and violacein derivatives dyed onto fabrics, dyed fabrics were subjected to a number of conditions. Fabrics were dyed according to Example 18 and colour coordinates and colour change before and after exposure to a given condition were determined as described in Example 18. To measure temperature stability, fabrics were incubated in an oven set to 80° c. for 4 h. To measure stability under acid and alkaline conditions, fabrics were fully submerged in water solutions set to pH 8 with NaOH and pH 5 with HCl and incubated at room temperature for 30 minutes. Fabrics were then incubated at 37° c. for 4 h. To measure stability during laundering, fabrics were washed at 30° c. under the “mix” setting of a Siemens IQ300 washing machine, then dried in a Siemens IQ300 dryer until dry. To measure artificial light stability, fabrics were placed under an LED lamp at room temperature for 16 h. To measure UV light stability, fabrics were placed under a UV lamp at room temperature for 1 h.

[2] = Alkaline pH stability of dyed fabrics (colour fastness, ΔE); conditions: pH 8 with NaOH
Procedure: as §1

[3] = Stability during laundering of dyed fabrics (colour fastness, ΔE); conditions: washed at 30° c.
Procedure: as §1

[4] = Acrylic, before and after the stability test
[5] = Bleached cotton, before and after the stability test
[6] = Diacetate, before and after the stability test
[7] = Nylon 6,6, before and after the stability test
[8] = Polyester, before and after the stability test
[9] = Wool, before and after the stability test

Compound: O=C1N=C(c2c[nH]c3ccc(O)cc23)C=C1c1c[nH]c2ccccc12 [proviolacein]
- L ([1]; Acrylic, After test): 58.24
- a ([1]; Acrylic, After test): −0.6
- b ([1]; Acrylic, After test): 1.57
- L ([1]; Acrylic, Before test): 56.45
- a ([1]; Acrylic, Before test): −2.01
- b ([1]; Acrylic, Before test): 2.1
- ΔE ([1]; Acrylic): 2.34
- L ([1]; Bleached cotton, After test): 61.95
- a ([1]; Bleached cotton, After test): 1.2
- b ([1]; Bleached cotton, After test): 2.46
- L ([1]; Bleached cotton, Before test): 62.46
- a ([1]; Bleached cotton, Before test): 0.6
- b ([1]; Bleached cotton, Before test): 2.51
- ΔE ([1]; Bleached cotton): 0.79
- L ([1]; Diacetate, After test): 59.98
- a ([1]; Diacetate, After test): 5.39
- b ([1]; Diacetate, After test): 6.04
- L ([1]; Diacetate, Before test): 61.94
- a ([1]; Diacetate, Before test): 4.17
- b ([1]; Diacetate, Before test): 5.25
- ΔE ([1]; Diacetate): 2.44
- L ([1]; Nylon 6,6, After test): 49.91
- a ([1]; Nylon 6,6, After test): −1.59
- b ([1]; Nylon 6,6, After test): −4
- L ([1]; Nylon 6,6, Before test): 50.83
- a ([1]; Nylon 6,6, Before test): −2.09
- b ([1]; Nylon 6,6, Before test): −3.92
- ΔE ([1]; Nylon 6,6): 1.05
- L ([1]; Polyester, After test): 62.77
- a ([1]; Polyester, After test): −0.52
- b ([1]; Polyester, After test): 1.37
- L ([1]; Polyester, Before test): 64.1
- a ([1]; Polyester, Before test): −1.81
- b ([1]; Polyester, Before test): 1.31
- ΔE ([1]; Polyester): 1.85
- L ([1]; Wool, After test): 64.23
- a ([1]; Wool, After test): 0.18
- b ([1]; Wool, After test): 4.96
- L ([1]; Wool, Before test): 65.67
- a ([1]; Wool, Before test): −0.22
- b ([1]; Wool, Before test): 4.25
- ΔE ([1]; Wool): 1.65
- L ([2]; Acrylic, After test): 58.76
- a ([2]; Acrylic, After test): −2.16
- b ([2]; Acrylic, After test): 3.85
- L ([2]; Acrylic, Before test): 57.87
- a ([2]; Acrylic, Before test): −0.46
- b ([2]; Acrylic, Before test): 1.91
- ΔE [2, 4]: 2.73
- L ([2]; Bleached cotton, After test): 64.37
- a ([2]; Bleached cotton, After test): 2.22
- b ([2]; Bleached cotton, After test): 2.08
- L ([2]; Bleached cotton, Before test): 63.78
- a ([2]; Bleached cotton, Before test): 2.31
- b ([2]; Bleached cotton, Before test): 1.4
- ΔE [2, 5]: 0.90
- L ([2]; Diacetate, After test): 61.54
- a ([2]; Diacetate, After test): 3.25
- b ([2]; Diacetate, After test): 6.78
- L ([2]; Diacetate, Before test): 60.55
- a ([2]; Diacetate, Before test): 3.12
- b ([2]; Diacetate, Before test): 6.29
- ΔE [2, 6]: 1.11
- L ([2]; Nylon 6,6, After test): 50.89
- a ([2]; Nylon 6,6, After test): −1.8
- b ([2]; Nylon 6,6, After test): −3.04
- L ([2]; Nylon 6,6, Before test): 52.98
- a ([2]; Nylon 6,6, Before test): −2.5
- b ([2]; Nylon 6,6, Before test): −3.65
- ΔE [2, 7]: 2.29
- L ([2]; Polyester, After test): 64.69
- a ([2]; Polyester, After test): −1.03
- b ([2]; Polyester, After test): −0.34
- L ([2]; Polyester, Before test): 64.55
- a ([2]; Polyester, Before test): −2.15
- b ([2]; Polyester, Before test): 1.47
- ΔE [2, 8]: 2.13
- L ([2]; Wool, After test): 65.28
- a ([2]; Wool, After test): −1.97
- b ([2]; Wool, After test): 5.42
- L ([2]; Wool, Before test): 65.56
- a ([2]; Wool, Before test): −2.33
- b ([2]; Wool, Before test): 7.35
- ΔE [2, 9]: 1.98
- L ([3]; Acrylic, After test): 67.87
- a ([3]; Acrylic, After test): −1.12
- b ([3]; Acrylic, After test): 2.23
- L ([3]; Acrylic, Before test): 58.81
- a ([3]; Acrylic, Before test): 0.01
- b ([3]; Acrylic, Before test): 1.72
- ΔE [3, 4]: 9.14
- L ([3]; Bleached cotton, After test): 73
- a ([3]; Bleached cotton, After test): 0.55
- b ([3]; Bleached cotton, After test): 1.68
- L ([3]; Bleached cotton, Before test): 65.1
- a ([3]; Bleached cotton, Before test): 1.34
- b ([3]; Bleached cotton, Before test): 3.23
- ΔE [3, 5]: 8.09
- L ([3]; Diacetate, After test): 68.23
- a ([3]; Diacetate, After test): 3.76
- b ([3]; Diacetate, After test): 5.07
- L ([3]; Diacetate, Before test): 62.86
- a ([3]; Diacetate, Before test): 4.96
- b ([3]; Diacetate, Before test): 5.09
- ΔE [3, 6]: 5.50
- L ([3]; Nylon 6,6, After test): 56.92
- a ([3]; Nylon 6,6, After test): −1.51
- b ([3]; Nylon 6,6, After test): −3.83
- L ([3]; Nylon 6,6, Before test): 50.65
- a ([3]; Nylon 6,6, Before test): −1.57
- b ([3]; Nylon 6,6, Before test): −2.84
- ΔE [3, 7]: 6.35
- L ([3]; Polyester, After test): 72.82
- a ([3]; Polyester, After test): −0.46
- b ([3]; Polyester, After test): 0.54
- L ([3]; Polyester, Before test): 65.21
- a ([3]; Polyester, Before test): −1.18
- b ([3]; Polyester, Before test): 1.47
- ΔE [3, 8]: 7.70
- L ([3]; Wool, After test): 72.54
- a ([3]; Wool, After test): −1.14
- b ([3]; Wool, After test): 5.37
- L ([3]; Wool, Before test): 64.87
- a ([3]; Wool, Before test): 0.09
- b ([3]; Wool, Before test): 5
- ΔE [3, 9]: 7.78
